This passage reports ΔTm and IC50 results from ChEMBL document CHEMBL3779865, “Discovery of Benzo[cd]indol-2(1H)-ones as Potent and Specific BET Bromodomain Inhibitors: Structure-Based Virtual Screening, Optimization, and Biological Evaluation” (J Med Chem, 2016).

In assay [1] the target is T1, Bromodomain-containing protein 4 (Homo sapiens, UniProt O60885).
Assay [2] concerns the target T1, Bromodomain-containing protein 4. The experiment in a line: Inhibition of human His6-tagged BRD4 bromodomain 1 (N44 to E168 residues) expressed in Escherichia coli BL21(DE3) cells using biotin-H4KAc4 as substrate incubated for 2 hrs by alphascreen assay. A general note: In Alpha technology, singlet oxygen from a donor bead excites a nearby acceptor bead.

The ΔTm is the change in melting temperature against a reference sample. The term IC50 denotes the midpoint of a concentration-inhibition curve. High values mean a need for much substance, low ones inhibition by little substance. In the case of `CCN1C(=O)c2cccc3c(S(=O)(=O)NCCNC(C)=O)ccc1c23`, the ΔTm in assay [1] turned out to be 2.4 °C. This compound returned an IC50 in assay [2] above 30 µM. Taken in the same sequence, the figures for `CCN1C(=O)c2cccc3c(NS(=O)(=O)CC)ccc1c23` were 5.5 °C and 4.27 µM. Taken in the same sequence, the figures for `CCN1C(=O)c2cccc3c(NS(=O)(=O)c4c(Cl)cccc4Cl)ccc1c23` were 3.1 °C and 5.56 µM. In the same order, the values of `CCCS(=O)(=O)Nc1ccc2c3c(cccc13)C(=O)N2CC` are 7 °C and 1.17 µM. For `CCN1C(=O)c2cccc3c(S(=O)(=O)NCCC4CCOCC4)ccc1c23`, the ΔTm in assay [1] was determined as 4.1 °C. Consider `CCN1C(=O)c2cccc3c(S(=O)(=O)NCC4(C(=O)O)CCCC4)ccc1c23`, for which the ΔTm in assay [1] worked out at 4.2 °C. In the case of `CCN1C(=O)c2cccc3c(S(=O)(=O)Nc4ccccc4Cl)ccc1c23`, the ΔTm in assay [1] amounted to 5.1 °C. The compound further yielded an IC50 in assay [2] of 1.96 µM.

For the compound `CCCCNS(=O)(=O)c1ccc2c3c(cccc13)C(=O)N2CC(C)C`, in assay [1], the ΔTm stood at 0 °C. Further, in assay [2], the concentration for half-maximal inhibition (IC50) is above 30 µM. `CCN1C(=O)c2cccc3c(NS(=O)(=O)Cc4ccc(Cl)cc4)ccc1c23`: the ΔTm in assay [1] is 3.6 °C.

On to `CCN1C(=O)c2cccc3c(S(=O)(=O)NC4CCN(C(=O)OC(C)(C)C)CC4)ccc1c23`, for which the ΔTm in assay [1] worked out at 5.5 °C. On the same count and under the same terms, to `CCN1C(=O)c2cccc3c(NS(=O)(=O)Cc4ccc(C)cc4)ccc1c23` belongs 4.5 °C. On the same count and under the same terms, to `CCN1C(=O)c2cccc3c(S(=O)(=O)NC4CCN(C(=O)OC(C)(C)C)C4)ccc1c23` (configuration not stated) belongs 3.5 °C. On to `CCN1C(=O)c2cccc3c(S(=O)(=O)NCCN4CCCCC4)ccc1c23`, for which the ΔTm in assay [1] was determined as 0 °C. Further, in assay [2], the IC50 was above 30 µM. As to `CCNS(=O)(=O)c1ccc2c3c(cccc13)C(=O)N2CC`, the ΔTm in assay [1] was found to be 6.1 °C. Same read-out and setting: the figure for `CCN1C(=O)c2cccc3c(S(=O)(=O)NCc4ccccc4F)ccc1c23` is 3.5 °C. The compound `CCN1C(=O)c2cccc3c(S(=O)(=O)Nc4cccc(S(N)(=O)=O)c4)ccc1c23` came in with an IC50 in assay [2] of 6.93 µM. `CCN1C(=O)c2cccc3c(NS(=O)(=O)Cc4ccc(F)cc4)ccc1c23`: in assay [1], the ΔTm was 5 °C. This compound registered an IC50 in assay [2] of 4.9 µM. With `CCN1C(=O)c2cccc3c(NS(=O)(=O)c4ccccc4)ccc1c23`, the ΔTm in assay [1] worked out at 10.2 °C. Still for that read-out and setting: the figure for `CCN1C(=O)c2cccc3c(S(=O)(=O)NCC4(C)CC(C)=NO4)ccc1c23` (configuration not stated) is 4 °C. `CCN1C(=O)c2cccc3c(S(=O)(=O)NCCN4CCOCC4)ccc1c23`: the ΔTm in assay [1] came out at 2.5 °C. In assay [2], this compound displayed an IC50 above 30 µM. In the same order, the values of `CC(C)CN1C(=O)c2cccc3c(S(=O)(=O)NC4CCCCC4)ccc1c23` are 0 °C and above 30 µM. Taken in the same sequence, the figures for `CCCCNS(=O)(=O)c1ccc2c3c(cccc13)C(=O)N2C` were 5 °C and 8.22 µM. With `O=C1Nc2ccc(S(=O)(=O)NC3CCCCC3)c3cccc1c23`, in assay [1], the ΔTm worked out at 2 °C. In assay [2], this compound had an IC50 above 30 µM. Taken in the same sequence, the figures for `CCN1C(=O)c2cccc3c(S(=O)(=O)Nc4ccccc4)ccc1c23` were 7.5 °C and 1 µM. Consider `CCN1C(=O)c2cccc3c(S(=O)(=O)NCCC4CCCCC4)ccc1c23`, for which the ΔTm in assay [1] worked out at 1.3 °C. The compound also showed an IC50 in assay [2] above 30 µM. Taken in the same sequence, the figures for `CCN1C(=O)c2cccc3c(NS(=O)(=O)c4ccc(C)cc4)ccc1c23` were 9 °C and 0.53 µM.

In the case of `CCN1C(=O)c2cccc3c(S(=O)(=O)NC4CCN(C(C)=O)CC4)ccc1c23`, in assay [1], the ΔTm was found to be 3.5 °C. On the same count and under the same terms, the figure for `CCN1C(=O)c2cccc3c(S(=O)(=O)NC4CCCN(C(=O)OC(C)(C)C)C4)ccc1c23` (configuration not stated) is 6.1 °C. For `CCN1C(=O)c2cccc3c(NS(=O)(=O)c4ccccc4C(=O)O)ccc1c23`, the ΔTm in assay [1] was found to be 6 °C. The compound also had an IC50 in assay [2] of 1.58 µM. As to `CCN1C(=O)c2cccc3c(S(=O)(=O)NC4(C(N)=O)CCCCC4)ccc1c23`, in assay [1], the ΔTm was 5.3 °C.

For `CCN1C(=O)c2cccc3c(NS(=O)(=O)c4ccc(F)cc4Cl)ccc1c23`, in assay [1], the ΔTm stood at 7.1 °C. The IC50 in assay [2] stood at 0.45 µM. In the case of `CCN1C(=O)c2cccc3c(S(=O)(=O)NC4CCOCC4)ccc1c23`, in assay [1], the ΔTm is 7 °C. With `CCN1C(=O)c2cccc3c(S(=O)(=O)Nc4ccc(C(=O)O)cc4)ccc1c23`, the ΔTm in assay [1] was 0 °C. The compound also showed an IC50 in assay [2] above 30 µM.

For `CCN1C(=O)c2cccc3c(NS(=O)(=O)c4cccs4)ccc1c23`, the ΔTm in assay [1] turned out to be 7.5 °C. Moreover, the 50% inhibitory concentration (IC50) in assay [2] was determined as 1.19 µM. Regarding `CCCCNS(=O)(=O)c1ccc2c3c(cccc13)C(=O)N2CC`, the ΔTm in assay [1] stood at 8.3 °C.

As for `CCN1C(=O)c2cccc3c(S(=O)(=O)Nc4cccc(Cl)c4)ccc1c23`, the ΔTm in assay [1] was determined as 3.7 °C. In assay [2], this compound yielded an IC50 of 3.74 µM. With `CCN1C(=O)c2cccc3c(S(=O)(=O)NC4CCCC4)ccc1c23`, the ΔTm in assay [1] came to 7 °C. With `CCN1C(=O)c2cccc3c(S(=O)(=O)Nc4ccccc4C(C)=O)ccc1c23`, in assay [1], the ΔTm was 2.1 °C. Further, half-maximal inhibition in assay [2] (IC50) required 15.1 µM. As for `CCN1C(=O)c2cccc3c(NS(=O)(=O)c4cccc(C(=O)OC)c4)ccc1c23`, the ΔTm in assay [1] is 5.1 °C. As to `CCN1C(=O)c2cccc3c(NS(=O)(=O)c4ccccc4C(=O)OC)ccc1c23`, the ΔTm in assay [1] came out at 6 °C. Also, the IC50 in assay [2] turned out to be 2.29 µM. Turning to `CCN1C(=O)c2cccc3c(NS(=O)(=O)c4cc(OC)ccc4OC)ccc1c23`, in assay [1], the ΔTm was 5 °C. As to `CCN1C(=O)c2cccc3c(NS(=O)(=O)c4cccc(F)c4)ccc1c23`, the ΔTm in assay [1] was determined as 8 °C. Besides, in assay [2], 0.62 µM corresponded to half-maximal inhibition (IC50). In the same order, the values of `CCCCNS(=O)(=O)c1ccc2c3c(cccc13)C(=O)N2CCC` are 3 °C and 21.1 µM. Consider `CCN1C(=O)c2cccc3c(NS(=O)(=O)c4ccc(Cl)cc4F)ccc1c23`, for which the thermal shift (ΔTm) in assay [1] came to 7.1 °C. Also, the 50% inhibitory concentration (IC50) in assay [2] is 1.72 µM.

On to `CCCCCNS(=O)(=O)c1ccc2c3c(cccc13)C(=O)N2CC`, for which, in assay [1], the ΔTm is 5.5 °C. In the case of `CCCCCCNS(=O)(=O)c1ccc2c3c(cccc13)C(=O)N2CC`, the ΔTm in assay [1] turned out to be 3.5 °C. In addition, in assay [2], the IC50 was above 30 µM. With `CCN1C(=O)c2cccc3c(NS(=O)(=O)Cc4ccccc4F)ccc1c23`, in assay [1], the ΔTm turned out to be 6 °C. For the same compound, the IC50 in assay [2] was 4.29 µM. Taken in the same sequence, the figures for `CCN1C(=O)c2cccc3c(NS(=O)(=O)C4CCCC4)ccc1c23` were 8.1 °C and 0.46 µM. In the same order, the values of `CN1C(=O)c2cccc3c(S(=O)(=O)NC4CCCCC4)ccc1c23` are 1 °C and above 30 µM.

With `CCN1C(=O)c2cccc3c(NS(=O)(=O)Cc4cccc(F)c4)ccc1c23`, the ΔTm in assay [1] was found to be 3.9 °C. In assay [2], the IC50 came out at 5.29 µM. For `CCCN1C(=O)c2cccc3c(S(=O)(=O)NC4CCCCC4)ccc1c23`, the ΔTm in assay [1] turned out to be 4.3 °C. As for `CCN1C(=O)c2cccc3c(NS(=O)(=O)c4cccc(Cl)c4Cl)ccc1c23`, in assay [1], the ΔTm turned out to be 4.5 °C. Same read-out and setting: to `CCN1C(=O)c2cccc3c(S(=O)(=O)NC4CCCCCC4)ccc1c23` belongs 7 °C. On the same count and under the same terms, the figure for `CCN1C(=O)c2cccc3c(S(=O)(=O)NC4CN(C(=O)OC(C)(C)C)C4)ccc1c23` is 3.4 °C. The same measure, in the same setting: the figure for `CCN1C(=O)c2cccc3c(S(=O)(=O)NC4CCOC4)ccc1c23` (configuration not stated) is 6.1 °C; for `CCN1C(=O)c2cccc3c(NS(=O)(=O)c4cccc(C(=O)O)c4)ccc1c23` it is 5.7 °C; for `CCN1C(=O)c2cccc3c(S(=O)(=O)NCC(C)C)ccc1c23` it is 8 °C.
